The values that follow come from patent US4599204A, “Oxalylamides useful as dental antiplaque agents and inhibitors of connective tissue destruction” (American Cyanamid Company, priority 1985, dated 1986).

Where a name gives a salt, the structure may show the parent alone.

The subject of one experiment is collagenase. Conditions: literature / U.S. Pat. No. 4,297,372; cited from earlier work.
In experiment [1] the target is T1, human skin fibroblast collagenase (Homo sapiens, UniProt P03956).
T1 construct: endogenous in cells; host or cells: human skin fibroblasts
T1 sequence (P03956 100-469): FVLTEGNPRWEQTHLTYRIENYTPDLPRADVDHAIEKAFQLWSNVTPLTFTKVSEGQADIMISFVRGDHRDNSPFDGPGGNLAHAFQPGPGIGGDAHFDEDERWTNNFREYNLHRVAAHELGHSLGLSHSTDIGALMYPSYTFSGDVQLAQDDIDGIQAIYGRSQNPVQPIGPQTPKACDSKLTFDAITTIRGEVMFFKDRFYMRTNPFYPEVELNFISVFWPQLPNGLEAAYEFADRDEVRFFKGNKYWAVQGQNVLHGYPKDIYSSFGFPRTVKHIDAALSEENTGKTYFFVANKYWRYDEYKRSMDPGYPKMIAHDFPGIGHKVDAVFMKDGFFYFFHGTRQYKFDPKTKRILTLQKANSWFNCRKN
Nature of the experiment: Collagenase Assay, Test Code 006: degradation of 14C-labeled native collagen fibrils by collagenase. The class given is biochemical. Conditions: ratio of weight (μg) for 50% inhibition over that of 6,6'-[ureylenebis(m-phenylenecarbonylimino)]bis[4-hydroxy-2-naphthalenesulfonic acid]disodium salt; test conc.: 30 μg/ml; 37° C., 16 hours; >1 = less active. Here is the method: (i) Collagenase Assay--Test Code 006
A collagenase assay was performed by a modification of the method of Harper, et al., Biochem., 10, 3035 (1971). In a typical assay (total volume of 0.45 ml), 100 μl of the activated enzyme was added to the ^14 C-labeled collagen fibrils (250 μl) followed by 100 μl of 50 mM cacodylate, pH 7.4, containing 5 mM calcium chloride. After incubation at 37° C. for 16 hours, the tubes were centrifuged in a Beckman microfuge for five minutes at full speed. An aliquot (200 μl) of the supernatant, representing collagenase digestion products of the fibril, was assayed for radioactivity. The effect of the test compound on collagen degradation by collagenase was examined as follows:
Varying concentrations of the test compound (in distilled water) were added to the assay tubes containing active collagenase (total volume 450 μl) and after 16 hours the amount of radioactivity in the supernatant was determined. Appropriate blanks and trypsin controls were run in parallel.
The result is expressed as an ID50 collagenase value which represents a ratio of the weight (μg) of the representative compound required for 50% inhibition of collagenase over the weight (μg) of 6,6,-[ureylenebis(m-phenylenecarbonylimino)]bis[4-hydroxy-2-naphthalenesulfonic acid]disodium salt required for 50% inhibition of collagenase.

Experiment [2] in a line: Binding (competition) assay with 14C-6,6'-[ureylenebis(m-phenylenecarbonylimino)]bis[4-hydroxy-2-naphthalenesulfonic acid]disodium salt on tooth powder. The settings on record: relative to 6,6'-[ureylenebis(m-phenylenecarbonylimino)]bis[4-hydroxy-2-naphthalenesulfonic acid]disodium salt; 1 mg tooth powder, PBS, 37° C., 60 minutes; >1 = less efficient. An excerpt: Using (radioactive) ^14 C-6,6'-[ureylenebis(m-phenylenecarbonylimino)]bis[4-hydroxy-2-naphthalenesulfonic acid]disodium salt a binding (competition) assay procedure is established which involves an insoluble substrate such as tooth powder which will bind the ^14 C-6,6'-[ureylenebis(m-phenylenecarbonylimino)]bis[4-hydroxy-2-naphthalenesulfonic acid]disodium salt. The amount of ^14 C-6,6'-[ureylenebis(m-phenylenecarbonylimino)]bis[4-hydroxy-2-naphthalenesulfonic acid]disodium salt bound is determined by washing away the unbound radioactive compound and counting CPM (counts per minute) of the insoluble tooth powder/^14 C-6,6'-[ureylenebis(m-phenylenecarbonylimino)]bis[4-hydroxy-2-naphthalenesulfonic acid]disodium salt complex. […] The inhibiting effect of the test compound on binding compared to non-radioactive 6,6'-[ureylenebis(m-phenylenecarbonylimino)]bis[4-hydroxy-2-naphthalenesulfonic acid]disodium salt was determined as follows: A one mg amount of tooth powder was incubated in one ml of phosphate buffered saline (PBS) with 10 μg of ^14 C-6,6'-[ureylenebis(m-phenylenecarbonylimino)]bis[4-hydroxy-2-naphthalenesulfonic acid]disodium salt and varying dose amounts (ranging from 0 to 2 mg) of the same cold (non-radioactive) compound. […]

A short description of experiment [3]: Binding to insoluble collagenous structures.
The test system of experiment [4] is corneal ulceration. The settings on record: alkali burned rabbit, applied to the eye; cited from earlier work.
For experiment [5] the following is noted: mechanistic studies; cited from earlier work.
Experiment [6] deals with corneal ulceration. The settings on record: human; cited from earlier work.

For the compound `O[C@H](CS)[C@H](O)CS` (racemic) [dithiothreitol], the “collagenase inhibition (in words)” value in the experiment on collagenase is “collagenase inhibitors”. As to `c1cnc2c(c1)ccc1cccnc12` [1,10-phenanthroline], the “collagenase inhibition (in words)” value in the experiment on collagenase is “collagenase inhibitors”.

`O=C(Nc1cccc(C(=O)Nc2ccc3cc(S(=O)(=O)O)cc(O)c3c2)c1)C(=O)Nc1cccc(C(=O)Nc2ccc3cc(S(=O)(=O)O)cc(O)c3c2)c1` [6,6'-[Oxalylbis(imino-m-phenylenecarbonylimino)]bis-[4-hydroxy-2-naphthalenesulfonic acid]disodium salt]: the “ID50 Collagenase Ratio” value in experiment [1] came to 1.10. Further, the “ID50 Binding Ratio” value in experiment [2] was found to be 1.00. Take `O=C(Nc1cccc(C(=O)Nc2ccc3cc(S(=O)(=O)O)cc(O)c3c2)c1)Nc1cccc(C(=O)Nc2ccc3cc(S(=O)(=O)O)cc(O)c3c2)c1` [6,6'-[ureylenebis(m-phenylenecarbonylimino)]bis[4-hydroxy-2-naphthalenesulfonic acid]disodium salt]: in experiment [3], the “binding to insoluble collagenous structures” value is “will bind to insoluble collagenous structures such as teeth, dentin, gingiva and the like”; the “character of binding (saturability, reversibility)” value is “saturable and reversible”. In addition, the “collagenase inhibition (in words)” value with collagenase is listed as “established as an inhibitor of the degradation of collagen”. As for `O=C([O-])CN(CCN(CC(=O)[O-])CC(=O)[O-])CC(=O)[O-].[Ca+2].[Ca+2]` [Calcium ethylenediaminetetraacetate], in the experiment on corneal ulceration [4], the “reduction of frequency of ulceration” value is “reduce the frequency of ulceration”. `F` [Fluoride]: the binding to enamel result in experiment [5] was “binds to enamel”.

Take `Cc1ccc(C(=O)Nc2ccc(S(=O)(=O)O)c3cc(S(=O)(=O)O)cc(S(=O)(=O)O)c23)cc1NC(=O)c1cccc(NC(=O)Nc2cccc(C(=O)Nc3cc(C(=O)Nc4ccc(S(=O)(=O)O)c5cc(S(=O)(=O)O)cc(S(=O)(=O)O)c45)ccc3C)c2)c1` [Suramin]: the “collagenase inhibition (in words)” value in the experiment on collagenase is “not inhibiting the action of collagenase”.

For the compound `CC(=O)N[C@@H](CS)C(=O)O` [acetylcysteine], in the experiment on corneal ulceration [4], the “reduction of frequency of ulceration” value is “reduce the frequency of ulceration”. Besides, the “effectiveness in treatment of acute and chronic corneal ulceration” value with corneal ulceration [6] was “effective in the treatment of acute and chronic corneal ulceration”. In the case of `N[C@@H](CS)C(=O)O` [cysteine], the “collagenase inhibition (in words)” value with collagenase is listed as “collagenase inhibitors”. Moreover, the “effectiveness in treatment of acute and chronic corneal ulceration” value with corneal ulceration [6] is “effective in the treatment of acute and chronic corneal ulceration”. As for `Cc1cc(-c2ccc(/N=N/c3c(S(=O)(=O)O)cc4cc(S(=O)(=O)O)cc(N)c4c3O)c(C)c2)ccc1/N=N/c1c(S(=O)(=O)O)cc2cc(S(=O)(=O)O)cc(N)c2c1O` [trypan blue], the “collagenase inhibition (in words)” value with collagenase was “inhibiting the activity of collagenase, or a proteinase contaminant in the collagenase preparation”. Consider sodium auriothiomalate, for which the “collagenase inhibition (in words)” value in the experiment on collagenase is “collagenase inhibitors”. Take “α2 -macroglobulin: Naturally occurring collagenase inhibitors include the serum components α2 -macroglobulin”: in the experiment with collagenase, the “collagenase inhibition (in words)” value is reported as “collagenase inhibitors”.
